Source: publication PMC5701137, “Discovery of novel choline acetyltransferase inhibitors using structure-based virtual screening” (Scientific Reports, 2017)

System: HEK 293 cells
Assay: MTT cell viability assay
Type: cell-based
Details: for % of cell proliferation: overnight, control cells 100%, mean ± SD of 3 readings; for cellular toxicity in MTT assay (in words): 10 and 50 µM
Experimental: Finally, to assess the prospective of the identified compounds for further development into ChAT ligands, we assessed the compounds active against ChAT, AChE and BuChE, for their cellular toxicity on human embryonic kidney (HEK 293) cells using the cell viability 3-(4,5-dimethylthiazol-2-yl)-2,5-diphenyltetrazolium bromide (MTT) assay. All compounds were evaluated at 10 and 50 µM concentrations. The cell viability data is given in Table 4 (also represented as a bar chart in Fig. 9).
The in vitro cellular toxicity of the active compounds was evaluated using MTT assay. Briefly, Human embryonic kidney epithelial (HEK-293) cells cultured at 37 °C in a humidified environment with 5% CO2 in Dulbecco’s Modified Eagle’s medium (DMEM) in 96 well plate to obtain 70–80% confluency. Further, the cells were incubated overnight at 37 °C with 10 µM and 50 µM compounds in triplicate. Cells treated with 1% DMSO were used as controls. At the end of the treatment (12 h), 10 μL of 12 mM MTT dissolved in Phosphate buffer saline pH 7.4, was added to each well and incubated for an additional 2 h at 37 °C. The media was then removed from the plate and 100 µL of DMSO was added to dissolve the violet formazan crystals. Finally, the absorbance was measured at 540 nm with a reference wavelength of 630 nm on Tecan spectrophotometer with shaking before the reading. The percentage viability was calculated taking 1% DMSO control as 100 percent and presented as mean ± SD.

Row | SMILES | % of cell proliferation (10 µM) [%] | % of cell proliferation (50 µM) [%] | cellular toxicity in MTT assay (in words)
1 | CC(C)c1ccc(C(=O)CSc2n[nH]c(-c3ccco3)n2)cc1 [Compound E1] | 101.9 ± 0.6 | 75.4 ± 4.9 | lower cellular toxicity
2 | CC(C)NC(=O)C1CCN(C(=O)c2csc(Nc3cccc4ccccc34)n2)CC1 [Compound B4] | 106.4 ± 5.8 | 74.2 ± 3.9 | lower cellular toxicity
